Values belong to the molecule of their own block, whether it stands above or below them.
Assays:
[1] = set-up: method as in PMID 35807404; details: after 24 h; cited from earlier work
[2] = Formation kinetics of Cu2+ complexes by UV-vis spectroscopy (time to reach equilibrium); assay type: physicochemical; details: ambient temperature
Experimental: The formation kinetics of the Cu^2+ complexes with NO3S and TACN-n-Bu was qualitatively appraised by UV–vis spectroscopy at ambient temperature and different pH values to explore the time necessary to reach equilibrium. The spectrum of NO3S and TACN-n-Bu as free ligands is also reported for comparison purposes in Figure S15.
The formation kinetics of Cu^2+ complexes with NO3S and TACN-n-Bu was evaluated at different pH values at room temperature using UV–vis spectroscopy as previously reported.[24],[25] Briefly, equimolar amounts of Cu^2+ and the proper ligands were mixed, and the corresponding UV–vis spectra were recorded over time. The final concentrations were CCu^2+ = CL = 1.0 × 10^–4 M. The pH was controlled using the following buffers: HCl 10^–2 M (pH = 2), acetic acid/acetate (pH = 4), and 2-[4-(2-hydroxyethyl)piperazin-1-yl]ethanesulfonic acid (HEPES) (pH = 7.1).

[3] = Solubility in water observed during pKa measurements; assay type: physicochemical; details: basic pH, precipitate observed
Experimental: (§1) Subsequently, the acid–base properties of NO3S and TACN-n-Bu were appraised. This study is a prior fundamental step before the investigation of complexation equilibria, since the proton represents a competitor of the metal ion for the interaction with the donor sites having Brønsted and Lewis acid–base properties, such as the amines of the TACN scaffold. […] The ionic strength (I) was adjusted using 0.15 M NaNO3. […] Therefore, additional pKa measurements were performed in a 1:1 water/methanol mixture, where no precipitation was detected. The acidity constants of TACN-n-Bu were derived upon analysis of the pH-potentiometric titrations data and pH-dependent ^1H NMR spectra in water (Figure S9B). The acidity constant values of both ligands are gathered in Table 1 along with the values of the unsubstituted macrocycle (i.e., TACN) and the methyl-functionalized one (i.e., 1,4,7-trimethyl-1,4,7-triazacyclonane, TACN-Me) derived from the literature.[30]
Potentiometric titrations were conducted using an automated titrating system (Metrohm 765 Dosimat) equipped with a combined glass electrode (Hamilton pH 0–14) and a Metrohm 713 pH meter at T = 25 °C under a N2 atmosphere. NaNO3 (0.15 M) was used to fix the ionic strength. Stock solutions of NO3S and TACN-n-Bu were freshly prepared by dissolution of the synthesized compounds (∼10^–3 M). […]

[4] = Stability constants of Cu2+ complexes by UV-vis spectrophotometric batch titrations; pCu2+ calculation; assay type: physicochemical; details: for pCu^2+ (−log[Cu^2+]free): calculated at CL = 1 × 10^-5 M, CCu2+ = 1 × 10^-6 M, pH 7.4 from stability constants
Experimental: The stability constants (logβ) of the Cu^2+ complexes formed by NO3S and TACN-n-Bu were determined via UV–vis spectrophotometric titrations. Due to both the slow complexation kinetics observed at acidic pH (vide supra) and the high complex stability, batch titrations were conducted and heating was applied to speed up reaching the equilibrium condition.
The stability of the Cu^2+ complexes with TACN-n-Bu was assessed as well to investigate the role of the sulfanyl pendants in metal coordination. The UV–vis spectra recorded at different pH values are shown in Figure 3B, and the variation of the absorbance at λ = 295 nm is reported in Figure S16B. The pCu^2+ values were then computed (Figure 5): being defined as −log[Cu^2+]free, the higher the pCu^2+ value, the greater the stability of the considered metal–ligand complex.[23]−[25]
UV–vis pH-spectrophotometric titrations were carried out as previously reported by means of the out-of-cell method at T = 25 °C and I = 0.15 M NaNO3.[24],[25] Briefly, stock solutions of NO3S or TACN-n-Bu were mixed with Cu(NO3)2 in independent vials at a 1:1 metal-to-ligand ratio (CCu^2+ = CL = 1.0 × 10^–4 M). The pH was adjusted as described in the NMR experiments. The vials were sealed and heated to T = 60 °C in a thermostatic bath to ensure complete complexation and then cooled to ambient temperature. The absorption spectra were recorded, and equilibrium was considered to be reached when no variations in either the pH or the electronic spectra were detected over time.
The thermodynamic data were elaborated with the least-squares fitting program PITMAP as described in our previous works.[22]−[25] All equilibrium constants refer to the overall equilibrium pM^m+ + qH^+ + rL^l– ⇌ MpHqLr^pm+q–rl, where M = Cu^2+ and L = NO3S or TACN-n-Bu, respectively, and are defined as cumulative formation constants (logβpqr = [MpLqHr]/[M]^p[L]^q[H]^r).

[5] = Cyclic voltammetry of the copper complex of NO3S (Cu2+/Cu+ couple); Cu+ stability constant and pCu+; assay type: physicochemical
Experimental: To assess the ability of NO3S to stably bind Cu^+, cyclic voltammetry (CV) analysis was executed. The investigation was performed in aqueous solution at pH ranging from 3 to 12. The obtained cyclic voltammograms, reported in Figure 7, show a peak couple attributable to the quasi-reversible one-electron reduction–oxidation process of the Cu^2+/Cu^+ redox pair (Table S9). No variation of the voltammetric behavior after multiple reduction–oxidation cycles was observed either with time or with the scan rate (except for the increase in the current intensity, i). This outcome is extremely significant because it proves the ability of NO3S to stabilize both copper oxidation states throughout the investigated pH range on the time scale of the CV experiments.
As illustrated in Figure 7 and Table S9, a pH-dependent variation of the cyclic voltammograms was found. […]
Bulk electrolysis of the preformed Cu^2+-NO3S complexes was carried out in a two-compartment cell. […] The electrolysis was performed at a fixed potential equal to E = −0.35 V and monitored by linear scan voltammetry on a rotating disk electrode. […] No variations of the ^1H NMR spectra were detected after 2 days (tubes were stored under a normal atmosphere). […]

[6] = Acidity constants (pKa) of the free ligands by pH-dependent 1H NMR; assay type: physicochemical; details: water, T = 25 °C
Experimental: as §1
However, the chemical shift of all of the other signals manifests a noticeable pH dependence. The most pronounced variation is experienced by the NCH2 protons of the ring, possibly because the deprotonation processes led to a marked relaxation of the ring constraint caused by the H^+−H^+ repulsions. An analogous pH dependency of the chemical shifts is observed for TACN-n-Bu, even if in this case a slowed exchange between the differently protonated forms can be recognized from the enlargement of the signals around pH = pKa,2. The data were fitted, and the corresponding protonation constants (Table 1) were obtained.
Small additions (∼μL) of HNO3 and/or NaOH were used to adjust the pH. The latter was measured as for the potentiometric measurements. Under highly acidic conditions, the pH was computed from the HNO3 concentration (pH = −logCH^+). An excitation sculpting pulse scheme was used to suppress the water signal.[32]
(§2) The thermodynamic data were elaborated with the least-squares fitting program PITMAP as described in our previous works.[22]−[25] […]

[7] = Acidity constants (pKa) of the free ligands by pH-potentiometric titration; assay type: physicochemical; details: T = 25 °C, I = 0.15 M NaNO3
Experimental: as §1
Potentiometric titrations were conducted using an automated titrating system (Metrohm 765 Dosimat) equipped with a combined glass electrode (Hamilton pH 0–14) and a Metrohm 713 pH meter at T = 25 °C under a N2 atmosphere. NaNO3 (0.15 M) was used to fix the ionic strength. Stock solutions of NO3S and TACN-n-Bu were freshly prepared by dissolution of the synthesized compounds (∼10^–3 M). To avoid carbonatation phenomena and facilitate the dissolution, prestandardized HNO3 (CH^+ = 4CL) was coadded to each ligand solution. The solubility of the ligands in water depends on pH: minimal values occur at pH > 12, where the noncharged, totally deprotonated form predominates. All of the titrations were conducted as previously described.[22]−[25] […] Each titration was performed independently, at least in quintuplicate.
as §2

[8] = set-up: method as in Bianchi et al. [30]; details: I = 0.1 M KNO3, T = 25 °C; ref Bianchi et al. [30]; cited from earlier work
[9] = UV-vis spectrophotometric titrations, T = 25 °C, I = 0.15 M NaNO3
[10] = I = 0.15 M NaNO3, read-out: pKa, H2L^2+ ⇌ H^+ + HL^+

Compound: CSCCN1CCN(CCSC)CCN(CCSC)CCN(CCSC)CC1 [DO4S, 1,4,7,10-tetrakis-[2-(methylsulfanyl)ethyl]-1,4,7,10-tetraazacyclododecane]
Percentage of intact [64Cu]Cu2+ complex in human serum [1]: 20%

Solubility in water of the completely deprotonated neutral form (L) [3]: sparingly soluble
logβ, Cu^2+ + L + H2O ⇌ [CuL(OH)]^+ + H^+ [4, 9]: 9.08 ± 0.03
logβ, Cu^2+ + L ⇌ [CuL]^2+ [4, 9]: 18.41 ± 0.05
pCu^2+ (−log[Cu^2+]free) [4]: 14.3
Increase in Cu2+ complex stability (pCu^2+) with respect to TACN-n-Bu ([4]; physiological pH): 6 orders of magnitude
pCu^+ ([5]; calculated at CL = 10^-5 M, CCu+ = 10^-6 M, pH = 7.4): 14.0
logβ, Cu^+ + L ⇌ [CuL]^+ ([5]; obtained from voltametric data, T = 25 °C, I = 0.15 M NaNO3): 18.36 ± 0.05
pKa [6, 10]: 2.7 ± 0.02
pKa ([6]; I = 0.15 M NaNO3, read-out: pKa, HL^+ ⇌ H^+ + L): 12.72 ± 0.08
pKa ([7]; 1:1 water/methanol, pH potentiometry in 1:1 water/methanol, read-out: pKa, H2L^2+ ⇌ H^+ + HL^+): 2.33 ± 0.04
pKa ([7]; 1:1 water/methanol, pH potentiometry in 1:1 water/methanol, read-out: pKa, HL^+ ⇌ H^+ + L): 11.52 ± 0.01
Compound: CSCCN1CCN(CCSC)CCN(CCSC)CC1 [NO3S]
Time to reach Cu2+ complexation equilibrium ([2]; pH = 1.0, equimolar metal-to-ligand 10^-4 M): ~14 h
Time to reach Cu2+ complexation equilibrium ([2]; pH = 4.0, equimolar metal-to-ligand 10^-4 M): ~0.167 h
Time to reach Cu2+ complexation equilibrium ([2]; pH = 7.1 (neutral), equimolar metal-to-ligand 10^-4 M): < 0.017 h

pCu^2+ (−log[Cu^2+]free) [4]: 18.2
Compound: O=C(O)CN1CCN(CC(=O)O)CCN(CC(=O)O)CC1 [NOTA, 1,4,7-triazacyclononane-1,4,7-triacetic acid, reference compound]

Compound: C1CNCCNCCN1 [TACN, 1,4,7-triazacyclononane]
pKa, H2L^2+ ⇌ H^+ + HL^+ [8]: 6.86
pKa, H3L^3+ ⇌ H^+ + H2L^2+ [8]: 2.1
pKa, HL^+ ⇌ H^+ + L [8]: 10.68

Compound: CN1CCN(C)CCN(C)CC1 [TACN-Me, 1,4,7-trimethyl-1,4,7-triazacyclonane]
pKa, H2L^2+ ⇌ H^+ + HL^+ [8]: 5.1
pKa, H3L^3+ ⇌ H^+ + H2L^2+ [8]: –0.4
pKa, HL^+ ⇌ H^+ + L [8]: 11.7

logβ, Cu^2+ + HL^+ ⇌ [CuHL]^3+ [4, 9]: 6.2 ± 0.1
logβ, Cu^2+ + HL^+ ⇌ [CuL]^2+ + H^+ [4, 9]: –0.04 ± 0.15
pKa [6, 10]: 5.04 ± 0.05
pKa ([7]; water, pH potentiometry, read-out: pKa, H2L^2+ ⇌ H^+ + HL^+): 5 ± 0.05
Compound: CCCCN1CCN(CCCC)CCN(CCCC)CC1 [TACN-n-Bu, 1,4,7-tris-n-butyl-1,4,7-triazacyclononane]
Time to reach Cu2+ complexation equilibrium ([2]; neutral pH, equimolar metal-to-ligand 10^-4 M): 8 h

Reference: article PMC10731632, “Is Smaller Better? Cu^2+/Cu^+ Coordination Chemistry and Copper-64 Radiochemical Investigation of a 1,4,7-Triazacyclononane-Based Sulfur-Rich Chelator” (Inorganic Chemistry, 2023)
